Experiments:
Assay type in all cases: cell-based, human
[1] = system: A549.tTA cells expressing #38 and #41; experiment: Role of farnesylation in cellular localization of GFP fused #38; conditions: 2 μM L-744,832, 48 hours
Method: #38 has a CAAX box motif in the C-terminus. A 15-carbon farnesyl or 20-carbon geranylgeranyl isoprenoid is linked to the Cys in a CAAX box motif by Farnesyl transferase or Geranylgeranyl transferase, respectively (Fu, H. W. et al., Recent Prog Horm Res, 54:315-342; discussion 342-313 (1999)). The role of farnesylation in cellular localization of #38 was examined. A549.tTA cells expressing #38 and #41 were treated with a peptidomimetic farnesyltransferase specific inhibitor, L-744,832 for 48 hours.

A549 cells = experiment: High content imaging of anti-proliferative synthetic K7 peptides (nuclei and apoptotic nuclei, 24 hours)
Method: A549 cells (American Type Culture Collection (ATCC), Manassas, Va., U.S.A.) were plated at 2000 cells/well in 96 well plates with F12K media supplemented with 10% fetal bovine serum and 1% penicillin/streptomycin and allowed to grow for 24 hours. Peptide dissolved in media was added to the cells to a final concentration ranging from 0.8 to 25 uM in triplicate. Following incubation with peptide for 24 hours, cells were fixed with 3.7% formaldehyde for 30 minutes, rinsed in PBS and stained with DAPI (Molecular Probes) to label nuclear DNA. Digital images were taken of the labeled nuclei in each well using a Zeiss Axiovert microscope, UV filter set and Photometrics camera.

[2] = system: A549 lung carcinoma cells; experiment: Fluorescence microscopy examination of A549 cells exposed to lys7-peptides (nuclei, apoptosis, cell cycle stage, 48 hours)
Method: A549 tumor cells (American Type Culture Collection, Fairfax Va.) were plated at 2000 cells per well in 96 well plates with F12k media supplemented with 10% fetal bovine serum and 1% penicillin/streptomycin and allowed to grow for 24 hours. Peptide dissolved in media was added to the cells to a final concentration of 0.8 to 100 uM in triplicate. Following incubation with peptide for 24 or 48 hours, cells were fixed with 3.7% formaldehyde for 30 minutes, rinsed in PBS and stained with DAPI (Molecular Probes, OR) to label nuclear DNA. Digital images of the labeled nuclei in each well were taken using a Zeiss Axiovert microscope, UV filter set and Photometrics camera.

[3] = system: A549 cells expressing GFP fusion #38 and #41; experiment: Displacement of cellular localization of GFP fusion peptides by synthetic analogues; conditions: 100 μM peptide, 5 hours
Method: GFP fused #38, #40, and #41 were concentrated at the plasma membrane and granular cytoplasmic structures. […] We examined whether synthetic analogues can displace cellular localization of GFP fusion peptides. A549 cells expressing GFP fusion #38 and #41 were incubated with 100 μM of K7—#41, K7—#41M and K7—#40 for 5 hours and GFP localization was analyzed using a fluorescent microscope.

Compound | cellular localization of #38 in the presence of inhibitor [1] | apoptotic nuclei (A549 cells) | number of observed cell nuclei remaining ([2]; A549 cells, 48 hours exposure, increasing doses) | cell cycle stage distribution ([2]; asynchronously growing A549 cells, 48 hours, remaining cells that have not undergone apoptosis) | change of cellular localization of GFP fusion #41 [3]
CC[C@H](C)[C@@H](CO[C@@H](Cc1ccccc1)C(=O)N[C@@H](CCS(C)(=O)=O)C(=O)OC(C)C)NC[C@@H](N)CS [L-744,832] | completely abolished |  |  |  | 
synthetic #41 fused with seven Lys (K7) via a linker (GGEEAAKA) at the N-terminus [K7—#41] |  | increase in apoptotic nuclei | ca. 10 % of original values | G1 phase cells were depleted and the percent of M phase cells increased significantly | punctuated localization of GFP and loss of GFP localization in the cell-cell contact area
